# According to patent US9326511B2, “Methods of inhibiting microbial biofilms” (priority 2008, dated 2016):
# Where two headings read alike, the source gives them in different places.
# Tests used:
# Enterococcus faecalis = experiment: MIC (IsoSensitest broth) and MBC (subculture onto Columbia blood agar), reference strains and clinical isolates; format: cell-based; details: dark, 24 hours
# Description: (§1) The Minimum Inhibitory Concentrations (MIC's) for Compound 10, over a range of reference strains and clinical isolates, were determined using IsoSensitest® broth and Minimum Bactericidal concentrations (MBC's) determined by subculture onto Columbia blood agar.
# (§2) • 1. A 5 mg/ml stock solution of Compound 10 was made up in water • 2. A series of dilutions were undertaken to produce a range of concentrations between 32-0.001 mg/L • 3. The test microorganisms were grown up overnight in IsoSensitest® broth • 4. The cultures were then diluted with fresh broth to a final concentration of 10^4 organisms/ml and placed on a shaker for 90 minutes at 37° C. • 5. 90 μl of the broth culture containing the microorganisms were transferred to each of 12 wells in a row in a microtitre tray and repeated in a control tray—four organisms per tray. • 6. 90 μL of the appropriate Compound 10 dilution was then added to each well containing organisms to give a final dilution series from 16 mg/L to 0.0005 mg/L • 7. The solutions were mixed well and incubated in the dark for 24 hours • 8. […] The MBC values were recorded after overnight incubation of the subcultures. • 10. Controls of uninoculated broth and broth plus inoculum were undertaken for each organism in each tray Results
# Enterococcus faecium = experiment: as above; format: cell-based; details: dark, 24 hours
# Description: as §1, §2
# E. coli cells = experiment: Binding of compounds with bacterial cells (spectrofluorimetric analysis of cell lysates); details: 5 min incubation
# Description: […] At the end of the incubation period, the cells were sedimented by centrifugation to remove the fraction of unbound test compound and the cell pellet was resuspended in 2 ml of 2% SDS to obtain cell lysates. After overnight incubation with SDS, the amount of cell-bound test compound was estimated by spectrofluorimetric analysis of the cell lysates. The concentration of the compounds in the cell lysates was calculated by measuring the intensities at the maximum of the emission fluorescence spectrum and interpolating the data on a calibration plot. The amount of cell-bound test compound was expressed as nmoles of compound per mg of cell protein. The protein concentration was determined by the method of Lowry (Lowry et al., 1951, J. Biol. Chem. 193:265-275).
# All experiments were run in triplicate and the results represent the average of 3 determinations with standard deviations.
# [1] = Chemical stability, qualitative stress tests (HPLC, LC-MS); format: physicochemical; details: solid, aqueous solution, PBS, 7 days each at 50, 70 and 90° C.
# Description: The following HPLC methodology was established for the analysis of the exemplary compounds of the invention.
# The method involves detection by UV at a wavelength of 420 nm, which is very specific for these compounds. In order to monitor impurities not related to the porphyrin structure (and therefore not absorbing at 420 nm) UV spectra of the whole chromatograms were also recorded between 200 nm and 700 nm by DAD (diode array detector) in certain experiments. • Column: Zorbax Phenyl, 250×4.6 mm, 5 µm • Eluent A: 1.5 g sodium dodecylsulfate+1 mL formic acid in 1000 mL water • Eluent B: 1.5 g sodium dodecylsulfate+1 mL formic acid in 200 mL water+800 mL tetrahydrofurane • Gradient:
# • Flow rate: 0.4 mL/min • Detection: 420 nm • Column temperature: 25° C. • Injection volume: 10 μl • Solutions: Porphyrin derivatives were dissolved in eluent A to give a final concentration of approximately 0.3 mg/ml.
# Qualitative stress tests were undertaken on the exemplary compounds of the invention. Analysis was undertaken by HPLC & LC-MS. The compounds were stress tested in solid form, in an aqueous solution and a solution made up in phosphate-buffered saline buffer. The samples were initially incubated for 7 days at 50° C. and a sample removed for testing. The samples were then incubated for a further 7 days at 70° C., samples removed as before and the samples incubated further for 7 days at 90° C. HPLC analysis of freshly prepared solutions was undertaken and compared to the samples after 7, 14 and 21 days incubation. A visual comparison of the chromatograms was then undertaken and the content of the main products and by-products as area percentage values determined (see FIG. 4).
# [2] = test system: S. aureus SH1000 biofilms; experiment: Biofilm MIC and minimum biofilm eradication concentration, Calgary Biofilm Device; format: cell-based, Staphylococcus aureus; details: Staphylococcus aureus, SH1000BIOFILMS, biofilm MIC, read-out: bMIC
# Description: Methods: MICs were determined for planktonic cultures by broth microdilution according to British Society for Antimicrobial Chemotherapy (BSAC) guidelines. Biofilm MICs (bMIC) and minimum biofilm eradication concentrations (MBECs) were determined using the Calgary biofilm device. The effect of Compound 10 on the viability of cold culture cells was determined by growing S. aureus SH1000 to early exponential phase at 37° C. and resuspending the cells in pre-chilled media, where they were maintained in the presence and absence of Compound 10 and control agents. The effect of Compound 10 on slow growing cells expressing the stringent response was also determined by growing cultures to early log phase and the stringent response induced by the addition of the isoleucyl-tRNA synthetase inhibitor mupirocin. Compound 10 and control agents were then added and samples recovered for viable cell determinations.
# Biofilm MICs and minimum biofilm eradication concentrations (MBEC) were determined in the Calgary Biofilm Device (Nunc Inc, Roskilde, Denmark) as described by Miller et al., 2005. This involves the following steps. Aliquots (200 μL) of exponential phase cultures of strain SH1000 were added to each well of a 96-well microtitre tray. The lid assembly, which has 96 polystyrene pegs corresponding to each well, was then replaced and the system incubated for 24 hours at 37° C. on a rocking platform. Following this a biofilm of approximately 10^7 cfu matured on each peg. The lid was then washed twice in phosphate-buffered saline (PBS) to remove residual planktonic growth and then placed into a microtitre tray with fresh media containing doubling dilutions of the test antibiotic. The system was then incubated for 24 hours at 37° C. on a rocking platform. The MIC was defined as the lowest concentration of antibiotic completely inhibiting visible growth after this incubation. After the MIC was recorded, the lid assembly was again washed twice in PBS to remove planktonic cells and remaining antibiotic and then placed into fresh drug-free media. The system was incubated for a further 24 hours and the MBEC was defined as the lowest concentration of antibiotic completely inhibiting the re-establishment of planktonic growth.
# [3] = 24 h, S. aureus SH1000, Calgary Biofilm Device, 24 hours (Table 6)
SMILES,Cpd 10 MIC (Enterococcus faecalis; strain E4 (clinical isolate)) [µg/mL],Cpd 10 MIC (Enterococcus faecalis; strain E10 (clinical isolate)) [µg/mL],Cpd 10 MIC (Enterococcus faecalis; strain E37 (clinical isolate)) [µg/mL],Cpd 10 MIC (Enterococcus faecium; strain E5 (clinical isolate)) [µg/mL],Cpd 10 MIC (Enterococcus faecium; strain E19 (clinical isolate)) [µg/mL],Cpd 10 MIC (Enterococcus faecium; strain E44 (clinical isolate)) [µg/mL],"Bound compound (E. coli cells; 0.01 μM compound, 0 washings) [nmoles/mg cell proteins]","Bound compound (E. coli cells; 0.01 μM compound, 3 washings) [nmoles/mg cell proteins]","Bound compound (E. coli cells; 0.1 μM compound, 0 washings) [nmoles/mg cell proteins]","Bound compound (E. coli cells; 0.1 μM compound, 3 washings) [nmoles/mg cell proteins]","Bound compound (E. coli cells; 0.5 μM compound, 0 washings) [nmoles/mg cell proteins]","Bound compound (E. coli cells; 0.5 μM compound, 3 washings) [nmoles/mg cell proteins]","Bound compound (E. coli cells; 1 μM compound, 0 washings) [nmoles/mg cell proteins]","Bound compound (E. coli cells; 1 μM compound, 3 washings) [nmoles/mg cell proteins]",Chemical stability under stress [1],"MIC [2, 3] [µg/mL]","MIC ([2]; S. aureus SH1000, Calgary device (Example H)) [µg/mL]"
"C[N+](C)(C)CCCOc1ccc(-c2c3nc(cc4ccc([nH]4)c(-c4ccc(OCCC[N+](C)(C)C)cc4)c4nc(cc5ccc2[nH]5)C=C4)C=C3)cc1.[Cl-].[Cl-] [Compound 10, 5,15-bis-[4-(3-Trimethylammonio-propyloxy)-phenyl]-porphyrin dichloride]",0.5,0.5,0.5,0.5,0.5,0.5,0.026 ± 0.005,0.015 ± 0.0004,0.274 ± 0.05,0.078 ± 0.02,1.542 ± 0.350,0.334 ± 0.092,2.70 ± 0.354,1.278 ± 0.102,good stability,1,1
"C[N+](C)(C)CCCOc1cccc(-c2c3nc(cc4ccc([nH]4)c(-c4cccc(OCCC[N+](C)(C)C)c4)c4nc(cc5ccc2[nH]5)C=C4)C=C3)c1.[Cl-].[Cl-] [Compound 12, 5,15-bis-[3-(3-Trimethylammonio-propyloxy)-phenyl]-porphyrin dichloride]",–,–,–,–,–,–,0.041 ± 0.02,0.021 ± 0.005,0.151 ± 0.02,0.089 ± 0.02,0.806 ± 0.14,0.622 ± 0.10,2.70 ± 0.30,1.930 ± 0.20,good stability,1,–
